Experimental data taken from patent publication US4904462A, “Multiply-tritiated steroidal-20,17-spirolactones and their use as tracer compounds” (Schering Aktiengesellschaft, priority 1984, dated 1990).

Tests used:
progesterone receptor = experiment: Relative binding affinity, progesterone receptor, human uterus cytosol, 3H-R5020 displacement; settings: 3H-R5020 8 nmol/l, R5020 = 100% RBA
Experimental: (§1) The relative binding affinities (RBA values) of aldosterone, prorenone as well as the compounds of this invention were determined, for the progesterone receptor, in human uterus cytosol, for the glucocorticoid receptor, in liver cytosol, and for the mineralocorticoid receptor, in the kidney cytosol of adrenalectomized rats. The relative binding affinity with respect to CBG was measured in the serum of pregnant women, diluted 1:30.
(§2) Cytosol from human uterus, rat kidneys and rat livers was prepared by homogenizing the tissues under cooling with the addition of receptor-stabilizing buffer (10 mmol/1 of KH2 PO4, 10 mmol/1 of K2 HPO4, 1.5 mmol/1 of EDTA, 3 mmol/1 of NaN3, 5 mmol/1 of monothioglycerol, 10% glycerol, pH 7.5). The homogenate was then centrifuged for 30 minutes at 105,000×g. The thus-formed supernatant centrifugation liquor corresponds to the tissue cytosol utilized for receptor testing. Then, in each case, 50 μl of a ^3 H-steroid (^3 H-R5020) for progesterone receptor testing, ^3 H-dexamethasonefor glucocorticoid receptor testing, ^3 H-aldosterone for mineralocorticoid receptor testing), dissolved in a buffer, was pipetted into test tubes (final concentration 8 nmol/1). Thereafter, the various steroids to be tested (in respectively six different concentrations: 10^-10 to 10^-5 mol/1) in 50 μl of buffer were added to the incubating tubes. Finally, 100 μl of cytosol was introduced into each tube by pipetting, and the incubation batch was thoroughly mixed and incubated overnight at 0°-4° C. Incubation was terminated by adding 0.5 ml of dextran-layered activated carbon (DCC) in a buffer. After 10 minutes of incubation under cooling, DCC was removed by centrifuging and thus the free, not receptor-bound steroid was separated from the receptor-bound steroid. The radioactivity was measured in the supernatant centrifugation liquors by means of a scintillation counter. All thus-determined values result from triple measurements. The measured dpm values were expressed in % of relative binding affinity, the RBA value referring to 50% displacement of the ^3 H-labeled ligand by its unlabeled authentic steroid (=100% RBA).

CBG = biological target: T1, CBG (Homo sapiens, UniProt P08185); experiment: Relative binding affinity to CBG, serum of pregnant women, 3H-cortisol displacement; settings: for Relative binding affinity (RBA), CBG: serum of pregnant women diluted 1:30, 3H-cortisol, cortisol = 100% RBA
T1 construct: a 1:30 dilution of the serum of pregnant women as the source of CBG; from tissue; host or cells: serum of pregnant women, diluted 1:30
T1 sequence (P08185 23-405): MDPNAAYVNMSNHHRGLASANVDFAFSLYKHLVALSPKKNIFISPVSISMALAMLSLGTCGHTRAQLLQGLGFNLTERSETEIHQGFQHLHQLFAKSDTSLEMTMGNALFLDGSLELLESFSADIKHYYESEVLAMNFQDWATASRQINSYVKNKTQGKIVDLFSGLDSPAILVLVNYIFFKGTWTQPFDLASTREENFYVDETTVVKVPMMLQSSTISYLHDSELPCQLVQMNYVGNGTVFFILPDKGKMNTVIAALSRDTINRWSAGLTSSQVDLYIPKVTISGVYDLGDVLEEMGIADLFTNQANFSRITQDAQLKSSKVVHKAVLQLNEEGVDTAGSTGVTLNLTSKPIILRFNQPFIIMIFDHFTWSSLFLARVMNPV
Experimental: as §1
As for the RBA values, for CBG an analogous procedure was followed, using ^3 H-cortisol and a 1:30 dilution of the serum of pregnant women as the source of CBG.

[1] = biological target: T2, mineralocorticoid receptor (Rattus norvegicus, UniProt P22199); experiment: Relative binding affinity, mineralocorticoid receptor, kidney cytosol, 3H-aldosterone displacement; settings: kidney cytosol of adrenalectomized rats; 3H-aldosterone 8 nmol/l; aldosterone = 100% RBA
T2 construct: Cytosol from human uterus, rat kidneys and rat livers was prepared by homogenizing the tissues; from tissue; host or cells: kidney cytosol of adrenalectomized rats
T2 sequence (P22199 1-981): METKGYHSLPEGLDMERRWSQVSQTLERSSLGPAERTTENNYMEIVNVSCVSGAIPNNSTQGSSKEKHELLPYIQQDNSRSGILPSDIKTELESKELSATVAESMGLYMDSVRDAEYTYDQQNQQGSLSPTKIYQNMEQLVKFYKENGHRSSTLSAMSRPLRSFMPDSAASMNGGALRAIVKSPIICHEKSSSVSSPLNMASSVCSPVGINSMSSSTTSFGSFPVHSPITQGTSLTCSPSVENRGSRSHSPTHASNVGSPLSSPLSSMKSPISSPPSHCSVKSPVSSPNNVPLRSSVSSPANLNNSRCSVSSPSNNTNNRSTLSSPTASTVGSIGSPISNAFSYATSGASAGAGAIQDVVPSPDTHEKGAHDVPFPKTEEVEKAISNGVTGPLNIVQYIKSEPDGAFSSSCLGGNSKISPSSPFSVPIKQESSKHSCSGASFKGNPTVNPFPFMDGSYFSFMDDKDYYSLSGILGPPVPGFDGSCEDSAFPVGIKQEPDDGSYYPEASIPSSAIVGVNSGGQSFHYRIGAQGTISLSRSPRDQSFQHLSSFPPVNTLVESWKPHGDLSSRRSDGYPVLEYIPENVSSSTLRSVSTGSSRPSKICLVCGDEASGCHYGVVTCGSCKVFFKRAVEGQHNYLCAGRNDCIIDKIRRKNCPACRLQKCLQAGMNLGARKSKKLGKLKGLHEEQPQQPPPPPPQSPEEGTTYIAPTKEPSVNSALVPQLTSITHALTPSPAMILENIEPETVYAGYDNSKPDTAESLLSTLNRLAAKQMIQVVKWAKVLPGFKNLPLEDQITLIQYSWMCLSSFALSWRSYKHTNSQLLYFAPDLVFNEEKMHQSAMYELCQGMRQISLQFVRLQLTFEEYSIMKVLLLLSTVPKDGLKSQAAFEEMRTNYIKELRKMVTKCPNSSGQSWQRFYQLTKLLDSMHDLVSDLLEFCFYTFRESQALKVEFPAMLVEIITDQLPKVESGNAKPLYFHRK
Experimental: as §1, §2

glucocorticoid receptor = biological target: T3, glucocorticoid receptor (Rattus norvegicus, UniProt P06536); experiment: Relative binding affinity, glucocorticoid receptor, liver cytosol, 3H-dexamethasone displacement; settings: for Relative binding affinity (RBA), Glucocorticoid Receptor: rat liver cytosol, 3H-dexamethasone 8 nmol/l, dexamethasone = 100% RBA
T3 construct: Cytosol from human uterus, rat kidneys and rat livers was prepared by homogenizing the tissues; from tissue; host or cells: rat liver cytosol
T3 sequence (P06536 1-795): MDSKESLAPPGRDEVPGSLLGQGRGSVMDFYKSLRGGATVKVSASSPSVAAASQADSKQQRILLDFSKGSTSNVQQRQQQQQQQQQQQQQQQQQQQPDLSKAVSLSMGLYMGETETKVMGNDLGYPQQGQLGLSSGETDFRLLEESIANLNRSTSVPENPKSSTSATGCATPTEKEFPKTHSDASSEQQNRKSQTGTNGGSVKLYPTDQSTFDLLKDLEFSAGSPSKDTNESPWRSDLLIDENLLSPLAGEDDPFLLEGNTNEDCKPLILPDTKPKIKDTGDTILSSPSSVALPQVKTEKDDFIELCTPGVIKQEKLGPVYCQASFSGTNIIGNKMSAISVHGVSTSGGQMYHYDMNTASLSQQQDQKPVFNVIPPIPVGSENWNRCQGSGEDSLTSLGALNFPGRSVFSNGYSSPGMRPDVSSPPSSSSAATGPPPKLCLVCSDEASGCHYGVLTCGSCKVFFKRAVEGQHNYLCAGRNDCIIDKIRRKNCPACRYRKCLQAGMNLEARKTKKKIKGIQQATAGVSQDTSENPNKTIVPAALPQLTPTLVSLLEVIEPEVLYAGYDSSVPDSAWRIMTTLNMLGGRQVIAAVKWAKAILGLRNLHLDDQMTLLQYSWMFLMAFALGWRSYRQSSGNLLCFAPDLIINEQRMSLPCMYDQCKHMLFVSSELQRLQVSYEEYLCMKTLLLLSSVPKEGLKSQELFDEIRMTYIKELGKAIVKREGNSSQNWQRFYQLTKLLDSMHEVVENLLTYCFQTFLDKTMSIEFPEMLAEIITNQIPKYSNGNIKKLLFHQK
Experimental: as §1, §2

[2] = Metabolic stability under the conditions of the receptor test; format: in vitro ADME; settings: in vitro receptor test conditions

Row | Molecule | Relative binding affinity (RBA), Progesterone Receptor (progesterone receptor) | Relative binding affinity (RBA), CBG (CBG) | Relative binding affinity (RBA), Mineralocorticoid Receptor [1] | Relative binding affinity (RBA), Glucocorticoid Receptor (glucocorticoid receptor) | metabolic stability under the conditions of the receptor test [2] | relative binding affinity (RBA value) to the human serum protein CBG (CBG; with respect to cortisol) | relative binding affinity in rat liver cytosol (glucocorticoid receptor; with respect to dexamethasone)
1 | 1α,2α;15β,16β-dimethylene-7α-methoxycarbonyl-3-oxo-17α-[18,19-^3 H4 ]pregn-4-ene-21,17-carbolactone [Example 7] | 0.2% | < 0.1% | 600% | 0.2% | – | – | –
2 | 6μ,7β;15β,16β-dimethylene-3-oxo-17α-[18,19-^3 H4 ]pregna-1,4-diene-21,17-carbolactone [Example 3] | 50% | < 0.1% | 90% | 0.9% | – | – | –
3 | 7α-(^3 H3)methoxycarbonyl-15β,16β-methylene-3-oxo-17α-[18,19-^3 H4 ]pregn-4-ene-21,17-carbolactone [Example 4] | 0.5% | < 0.1% | 400% | 0.8% | – | – | –
4 | 7α-[1'-(^3 H3)-ethoxy]carbonyl-15β,16β-methylene-3-oxo-17α-pregn-4-ene-21,17-carbolactone [Example 8] | 0.95% | < 0.1% | 800% | 0.8% | – | – | –
5 | 7α-[1'-(^3 H3)ethoxy]carbonyl-15β,16β-methylene-3-oxo-17α-pregna-1,4-diene-21,17-carbolactone [Example 6] | 0.2% | < 0.1% | 600% | 0.4% | – | – | –
6 | C[C@]12CCC(=O)C=C1CC[C@@H]1[C@@H]2[C@@H](O)C[C@]2(C=O)[C@@H](C(=O)CO)CC[C@@H]12 [Aldosterone, reference compound] | 0.2% | 6% | – | 30% | is metabolized under in vitro conditions of receptor testing | 6% | 30%
7 | C[C@]12CCC(=O)C=C1[C@@H]1C[C@@H]1[C@H]1[C@@H]3[C@@H]4C[C@@H]4[C@@]4(CCC(=O)O4)[C@@]3(C)CC[C@@H]12 [Prorenone, reference compound] | 32% | < 0.01% | 200% | 3% | – | – | –
